According to US7906122B2 (priority 2003, dated 2011):

Tested on: the 3 viral strains (pooled HN)
Set-up: species or system BALB/c mice
Conditions: mouse, in vivo

Substance: N-palmitoyl D-erythro sphingosyl carbamoyl-spermine [CCS]
- immunogenicity of CCS alone compared to CCS/Chol as the vaccine carrier: no difference in immunogenicity
